One assay deals with EGFR (Homo sapiens, UniProt P00533). Description: EGFR kinase autophosphorylation assay (peptide phosphorylation, HTRF). The assay is classed as biochemical. Conditions: 0.8 nM EGFR, class by pIC50. The method, then: (§1) A selection of compounds of the present invention were tested for inhibitory activity against EGFR and ErbB2 kinases in autophosphorylation assays.
(§2) The method measures the ability of the isolated enzyme to catalyse the transfer of the gamma-phosphate from ATP onto the tyrosine residue of a biotinylated synthetic peptide referenced “Peptide C” in Brignola, P. S., et al, (2002) J. Biol. Chem. 277(2):1576-1585. The extent of tyrosine phosphorylation was measured using an anti-phosphotyrosine antibody, and quantified by homogenous time-resolved fluorescence (HTRF).
(§3) Reactions were performed in black 384-well polystyrene flat-bottom plates in a final volume of 20 ul. Assays were performed by adding 10 μl of each of the following solutions, substrate Mix and enzyme mix: The Substrate mix contained 100 mM 3-[N-morpholino]propanesulfonic acid (MOPS) (pH 7.5), 2 mM MnCl2, 20 μM ATP, 0.01% Tween-20, 0.1 mg/mL (BSA), 0.8 uM peptide substrate, and 1 mM dithiothreitol. The enzyme mix contained 100 mM MOPS (pH7.5); 0.01% Tween-20; 0.1 mg/mL BSA, and either 0.8 nM EGFR, 10 nM ErbB2, or 1 nM ErbB4
(§4) The enzyme mix was added to the compound plates and the plates were incubated at 20° C. for 1 hour. The reactions were allowed to proceed for 90 minutes at 20° C. The reactions were then terminated by the addition of 20 μl 100 mM EDTA to each well. 40 μl/well of HTRF detection mix were added to the assay plates. The final concentrations of the detection reagents were: 100 mM HEPES (pH7.5), 0.1 mg/mL BSA, 15 nM streptavidin-labeled allophycocyanin (PerkinElmer), and 1 nM europium-labeled anti-phosphotyrosine antibody (PerkinElmer). Assay plates were left unsealed and were counted in a Wallac Multilabel Counter 1420 (PerkinElmer).
(§5) Compounds under analysis were dissolved in Me2SO to 1.0 mM and serially diluted 1 to 3 with Me2SO through twelve dilutions. 1 μl of each concentration was transferred to the corresponding well of an assay plate. This creates a final compound concentration range from 0.00027 to 47.6 μM.
(§6) The data for dose responses were plotted as % Inhibition calculated with the data reduction formula 100*(1−(U1−C2)/(C1−C2)) versus concentration of compound where U is the unknown value, C1 is the average control value obtained for 4.76% DMSO, and C2 is the average control value obtained for 0.035 M EDTA. Data were fitted with a curve described by:
(§7) where Vmax is the upper asymptote, Y2 is the Y intercept, and K is the IC50. The results for each compound were recorded as pIC50s, calculated as follows: […]
(§8) In the following table: • “+” indicates no pIC50 measurement greater than 6 against EGFR or ErbB2, • “++” indicates at least one pIC50 measurement greater than 6 against EGFR or ErbB2 but no measurement greater than pIC50 of 7; and • “+++” indicates at least one pIC50 measurement of greater than 7 against EGFR or ErbB2.

A further assay concerns the target B-Raf (Homo sapiens, UniProt P15056). Description: B-Raf Accelerated MEK ATPase assay (BRAMA). It counts as biochemical. The conditions noted are these: BRAMA enzyme assay; class by pIC50; read-out: B-Raf Activity. Summed up: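 B-Raf activity read as intrinsic MEK ATPase: catalytic activated RAF with non-phosphorylated MEK drives ADP formation, coupled through pyruvate kinase and lactate dehydrogenase to NADH oxidation, independent of ERK phosphorylation.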

A further assay relates to A375P tumor cells. Briefly: Cell growth inhibition assay (CellTiter-Glo), A375P.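 Note: total ATP luminescence used as proxy for cell number, serial threefold compound dilutions at 0.2% DMSO, growth inhibition expressed versus DMSO vehicle-treated wells.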 The conditions noted are these: Homo sapiens, 72 h, read-out: Activity in A375P Tumor Cells. A general note: Cellular ATP, detected with luciferase, serves as a proxy for viable cell number.
A further assay concerns HT-29 tumor cells. Briefly: Cell growth inhibition assay (CellTiter-Glo), HT-29.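 Note: ATP content read by luminescence as proxy for cell number, growth inhibition versus DMSO vehicle wells, 0.2% DMSO final, nine serial threefold compound dilutions.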 The conditions noted are these: Homo sapiens, HT-29, 72 h, read-out: Activity in HT-29 Tumor Cells.
Another assay relates to SK-MEL-3 tumor cells. Briefly: Cell growth inhibition assay (CellTiter-Glo), SK-MEL-3.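 Note: human melanoma cells grown with compound for 3 days in 0.2% DMSO, total ATP read by luminescence as proxy for cell number, growth inhibition versus DMSO-treated wells.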 The conditions noted are these: Homo sapiens, SK-MEL3, 72 h, read-out: Activity in SK-MEL-3 Tumor Cells.
The target of the next assay is ErbB2 (Homo sapiens, UniProt P04626). Briefly: ErbB2 kinase autophosphorylation assay (peptide phosphorylation, HTRF). It counts as biochemical. Conditions: 10 nM ErbB2, HTRF; class by pIC50. Here is the method: as §1, §2, §3, §4, §5, §6, §7, §8
ErbB2, sequence (P04626 23-1255): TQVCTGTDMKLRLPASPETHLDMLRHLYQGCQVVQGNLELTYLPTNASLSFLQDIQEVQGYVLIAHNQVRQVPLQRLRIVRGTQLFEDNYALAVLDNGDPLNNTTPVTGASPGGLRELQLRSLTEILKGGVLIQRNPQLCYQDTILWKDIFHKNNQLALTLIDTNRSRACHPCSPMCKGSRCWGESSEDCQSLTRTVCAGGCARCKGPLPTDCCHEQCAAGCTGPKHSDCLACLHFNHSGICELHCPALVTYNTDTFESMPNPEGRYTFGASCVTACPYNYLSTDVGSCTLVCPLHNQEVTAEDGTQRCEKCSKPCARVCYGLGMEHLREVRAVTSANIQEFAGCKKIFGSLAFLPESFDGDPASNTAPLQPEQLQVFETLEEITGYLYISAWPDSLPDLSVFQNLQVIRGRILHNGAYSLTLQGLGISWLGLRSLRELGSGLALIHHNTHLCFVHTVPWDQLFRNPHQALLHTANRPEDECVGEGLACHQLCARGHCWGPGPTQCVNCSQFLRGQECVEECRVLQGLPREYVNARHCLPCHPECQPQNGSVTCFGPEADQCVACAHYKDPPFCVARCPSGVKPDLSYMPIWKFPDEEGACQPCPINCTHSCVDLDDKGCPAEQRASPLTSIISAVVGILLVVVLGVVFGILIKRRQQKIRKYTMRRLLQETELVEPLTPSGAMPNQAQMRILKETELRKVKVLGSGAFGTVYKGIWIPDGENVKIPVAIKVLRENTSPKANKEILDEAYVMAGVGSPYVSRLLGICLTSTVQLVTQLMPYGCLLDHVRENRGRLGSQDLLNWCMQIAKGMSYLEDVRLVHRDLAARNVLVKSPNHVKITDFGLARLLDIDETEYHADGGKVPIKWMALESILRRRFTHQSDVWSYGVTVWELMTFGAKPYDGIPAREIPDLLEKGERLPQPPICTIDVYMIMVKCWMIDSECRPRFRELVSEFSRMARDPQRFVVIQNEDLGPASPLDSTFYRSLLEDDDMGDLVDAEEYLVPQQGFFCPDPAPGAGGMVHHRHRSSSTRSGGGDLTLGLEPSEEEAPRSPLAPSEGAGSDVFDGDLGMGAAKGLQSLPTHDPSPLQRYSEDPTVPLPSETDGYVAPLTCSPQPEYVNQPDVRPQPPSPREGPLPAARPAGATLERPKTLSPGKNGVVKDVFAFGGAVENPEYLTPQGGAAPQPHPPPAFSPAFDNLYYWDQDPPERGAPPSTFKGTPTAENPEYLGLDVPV
For another assay, the system named is SK-MEL-28 tumor cells. Briefly: Cell growth inhibition assay (CellTiter-Glo), SK-MEL-28.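 Note: luminescent total ATP as a proxy for cell number, threefold serial dilutions at 0.2% DMSO, percent growth inhibition versus DMSO vehicle control wells.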 Conditions: Homo sapiens, SK-MEL-28, 72 h, read-out: Activity in SK-MEL-28 Tumor Cells.
The subject of the next assay is Colo205 tumor cells. Briefly: Cell growth inhibition assay (CellTiter-Glo), Colo205.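 Note: growth measured via total ATP luminescence (CellTiter-Glo) as a proxy for cell number, inhibition expressed against DMSO-treated control wells, 3-day exposure at 0.2% final DMSO.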 Conditions: Homo sapiens, COLO 205, 72 h, read-out: Activity in Colo205 Tumor Cells.

SMILES strings stand for the structures. Where a name gives a salt, the structure may show the parent alone.

B-Raf, sequence (P15056 whole entry): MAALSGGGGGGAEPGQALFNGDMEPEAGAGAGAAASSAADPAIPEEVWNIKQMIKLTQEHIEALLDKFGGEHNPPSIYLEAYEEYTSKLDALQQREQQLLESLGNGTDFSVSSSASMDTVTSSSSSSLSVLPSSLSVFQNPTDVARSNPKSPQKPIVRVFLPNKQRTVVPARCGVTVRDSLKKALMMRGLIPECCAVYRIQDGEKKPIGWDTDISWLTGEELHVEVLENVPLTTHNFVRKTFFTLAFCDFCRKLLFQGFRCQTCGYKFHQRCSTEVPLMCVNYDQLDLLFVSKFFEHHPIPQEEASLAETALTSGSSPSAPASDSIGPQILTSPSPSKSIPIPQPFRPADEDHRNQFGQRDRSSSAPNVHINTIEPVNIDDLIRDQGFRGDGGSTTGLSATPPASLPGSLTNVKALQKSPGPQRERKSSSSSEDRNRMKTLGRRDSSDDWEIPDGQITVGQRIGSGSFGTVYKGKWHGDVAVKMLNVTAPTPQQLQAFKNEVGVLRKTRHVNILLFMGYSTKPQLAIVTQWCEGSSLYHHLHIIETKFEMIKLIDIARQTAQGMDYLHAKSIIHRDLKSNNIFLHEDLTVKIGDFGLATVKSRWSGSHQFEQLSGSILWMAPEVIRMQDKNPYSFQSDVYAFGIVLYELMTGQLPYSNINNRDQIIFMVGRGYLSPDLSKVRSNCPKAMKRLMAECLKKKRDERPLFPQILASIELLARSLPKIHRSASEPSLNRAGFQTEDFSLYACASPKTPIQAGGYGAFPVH
EGFR, sequence (P00533 25-1210): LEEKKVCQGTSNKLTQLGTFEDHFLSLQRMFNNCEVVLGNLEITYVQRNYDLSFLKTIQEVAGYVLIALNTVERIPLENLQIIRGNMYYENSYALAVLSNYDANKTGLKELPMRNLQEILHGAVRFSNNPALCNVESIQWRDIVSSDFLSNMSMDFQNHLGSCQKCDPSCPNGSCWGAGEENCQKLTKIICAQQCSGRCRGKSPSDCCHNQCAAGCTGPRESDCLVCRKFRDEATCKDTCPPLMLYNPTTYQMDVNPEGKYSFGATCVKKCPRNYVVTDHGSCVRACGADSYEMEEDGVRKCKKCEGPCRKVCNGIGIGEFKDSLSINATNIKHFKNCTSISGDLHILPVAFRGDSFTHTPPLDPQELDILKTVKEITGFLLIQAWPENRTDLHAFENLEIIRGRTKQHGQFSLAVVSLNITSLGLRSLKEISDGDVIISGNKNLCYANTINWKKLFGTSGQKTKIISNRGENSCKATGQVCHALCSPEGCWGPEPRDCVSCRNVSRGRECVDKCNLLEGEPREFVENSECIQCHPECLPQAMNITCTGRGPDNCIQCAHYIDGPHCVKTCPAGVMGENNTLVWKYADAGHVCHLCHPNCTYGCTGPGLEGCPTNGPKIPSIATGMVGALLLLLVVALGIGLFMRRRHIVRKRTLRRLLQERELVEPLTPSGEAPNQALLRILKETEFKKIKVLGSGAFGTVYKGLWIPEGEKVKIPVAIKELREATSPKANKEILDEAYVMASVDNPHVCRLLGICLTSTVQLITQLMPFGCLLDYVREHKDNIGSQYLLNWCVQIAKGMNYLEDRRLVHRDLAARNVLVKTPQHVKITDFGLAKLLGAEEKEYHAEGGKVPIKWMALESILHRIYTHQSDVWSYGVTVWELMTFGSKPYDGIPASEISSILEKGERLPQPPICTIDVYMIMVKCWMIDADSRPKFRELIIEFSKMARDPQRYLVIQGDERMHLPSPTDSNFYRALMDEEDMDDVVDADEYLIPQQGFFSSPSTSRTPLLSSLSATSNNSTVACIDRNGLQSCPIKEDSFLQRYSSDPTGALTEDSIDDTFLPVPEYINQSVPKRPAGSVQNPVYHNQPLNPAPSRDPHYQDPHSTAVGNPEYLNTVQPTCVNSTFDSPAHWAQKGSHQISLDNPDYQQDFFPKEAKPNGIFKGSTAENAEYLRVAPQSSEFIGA
Procedure for HT-29 tumor cells: Cell Growth Inhibition Assays Human colon tumor cells (Colo205) were cultured in RPMI (Mediatech 50-020-PB) containing 10% FBS and 1% penicillin-streptomycin. […] Human melanoma cancer cells (A375-F11S) were cultured in RPMI (Mediatech 50-020-PB) containing 10% FBS, 1% sodium pyruvate, and 1% penicillin-streptomycin. Human colon cancer cells (HT-29) were cultured in high glucose DMEM (Mediatech 50-013-PB) containing 10% FBS and 1% penicillin-streptomycin. Human melanoma cancer cells (SK-MEL-3) were cultured in McCoy's 5A (50-025-PB) containing 15% FBS, and 1% penicillin-streptomycin. All cell lines were maintained at 37° C. in a humidified 5% CO2, 95% air incubator.
The next day, compounds were diluted as follows: For 96-well assays, 13.5 μl of compound in DMSO were diluted using nine (9) serial 1:3 dilutions of 4.5 μl in 9 μl of DMSO. Medium (270 μl/well of RPMI with 10% FBS and 1% penicillin-streptomycin) was added to the plates. Aliquots (7 μl) were added to cells in the final assay giving a final DMSO concentration of 0.2%. For 384-well assays, 15 μl of compound in DMSO were diluted using nine (9) serial 1:3 dilutions of 5 μl in 10 μl of DMSO, followed by a further dilution of 5 μl of compound with 95 μl of medium, of which 2 μl are added to cells in the final assay giving a final DMSO concentration of 0.2%. Cells were incubated at 37° C., 5% CO2 for 3 days.
Total ATP was measured (as a surrogate estimate of cell number) using CellTiter-Glo® (Promega G7571) reagent. Briefly, plates were removed from the incubator and allowed to equilibrate to room temperature for 30 minutes. CellTiter-Glo® (25 μl or 55 μl for 384-well or 96-well assays, respectively) reagent was added to each well and plates were shaken on an orbital plate shaker for 2 minutes. Plates were incubated without shaking for a further 30 minutes and read on an LJL Analyst GT reader in luminometer mode with an integration time of 0.5 seconds per well. Percent inhibition of cell growth was calculated relative to DMSO vehicle-treated control wells.

As for `CCNc1nc(-c2cc(OC)cc(OC)c2)c(-c2ccnc(Nc3ccc(N4CCOCC4)c(F)c3)n2)s1` [Example 7, 4-[4-[3,5-Bis(methyloxy)phenyl]-2-(ethylamino)-1,3-thiazol-5-yl]-N-[3-fluoro-4-(4-morpholinyl)phenyl]-2-pyrimidinamine], the IC50 against EGFR was > 1000 nM; on B-Raf, < 100 nM; in the assay on A375P tumor cells it was 500 to 5000 nM; with HT-29 tumor cells, < 500 nM; in the assay on SK-MEL-3 tumor cells, < 500 nM; at ErbB2 it was > 1000 nM. Besides, the IC50 with SK-MEL-28 tumor cells and in the assay with Colo205 tumor cells was < 500 nM each time.
On to `CCNc1nc(-c2cc(C)cc(OC)c2)c(-c2ccnc(Nc3ccc(N4CCN(CCS(C)(=O)=O)CC4)c(F)c3)n2)s1` [Example 27, 4-{2-(Ethylamino)-4-[3-methyl-5-(methyloxy)phenyl]-1,3-thiazol-5-yl}-N-(3-fluoro-4-{4-[2-(methylsulfonyl)ethyl]-1-piperazinyl}phenyl)-2-pyrimidinamine], for which the IC50 at EGFR was > 1000 nM; at B-Raf, < 100 nM; in the assay on A375P tumor cells, < 500 nM; in the assay on HT-29 tumor cells, < 500 nM; in the assay with SK-MEL-3 tumor cells it was < 500 nM; against ErbB2, > 1000 nM. Also, the IC50 with SK-MEL-28 tumor cells and with Colo205 tumor cells was < 500 nM throughout.
`CCNc1nc(-c2cc(OC)cc(OC)c2)c(-c2ccnc(Nc3ccc(OC4CCN(CCS(C)(=O)=O)CC4)c(C)c3)n2)o1` [Example 87]: the IC50 at EGFR is > 1000 nM; on B-Raf, < 100 nM; in the assay on A375P tumor cells, 500 to 5000 nM; in the assay with HT-29 tumor cells it was 500 to 5000 nM; in the assay on SK-MEL-3 tumor cells, 500 to 5000 nM; against ErbB2, > 1000 nM. Also, the IC50 in the assay on SK-MEL-28 tumor cells and in the assay on Colo205 tumor cells was 500 to 5000 nM throughout.
Turning to `CCNc1nc(-c2cc(C)cc(OC)c2)c(-c2ccnc(Nc3ccc(N4CCOCC4)nc3)n2)s1` [Example 35, 4-{2-(Ethylamino)-4-[3-methyl-5-(methyloxy)phenyl]-1,3-thiazol-5-yl}-N-[6-(4-morpholinyl)-3-pyridinyl]-2-pyrimidinamine], the IC50 against EGFR was > 1000 nM; at B-Raf it was < 100 nM; with A375P tumor cells, < 500 nM; with HT-29 tumor cells it was < 500 nM; in the assay on SK-MEL-3 tumor cells, < 500 nM; against ErbB2 it was > 1000 nM. Besides, the IC50 with SK-MEL-28 tumor cells and in the assay with Colo205 tumor cells was < 500 nM in each case.
For `COCCNc1nc(-c2cccc(OC)c2)c(-c2ccnc(Nc3ccc(N4CCOCC4)c(Cl)c3)n2)s1` [Example 43, N-[3-Chloro-4-(4-morpholinyl)phenyl]-4-{2-{[2-(methyloxy)ethyl]amino}-4-[3-(methyloxy)phenyl]-1,3-thiazol-5-yl}-2-pyrimidinamine hydrochloride], the IC50 on EGFR is < 100 nM; at B-Raf, < 100 nM; in the assay with A375P tumor cells, < 500 nM; with HT-29 tumor cells, < 500 nM; with SK-MEL-3 tumor cells, < 500 nM; on ErbB2, < 100 nM. The results for the IC50 in the assay with SK-MEL-28 tumor cells and in the assay on Colo205 tumor cells were > 5000 nM and 500 to 5000 nM, respectively.
As to `CCc1nc(-c2ccc(CO)c(OC)c2)c(-c2ccnc(Nc3ccc(N4CCN(C(C)=O)CC4)nc3)n2)s1` [Example 55], the IC50 against EGFR was > 1000 nM; on B-Raf, < 100 nM; with A375P tumor cells it was < 500 nM; with HT-29 tumor cells, < 500 nM; in the assay on SK-MEL-3 tumor cells, < 500 nM; against ErbB2 it was > 1000 nM. In addition, the IC50 in the assay with SK-MEL-28 tumor cells and with Colo205 tumor cells was < 500 nM in each case.
As for `COc1cc(C)cc(-c2nc(C(C)C)sc2-c2ccnc(Nc3ccc(N4CCN(C(C)=O)CC4)nc3)n2)c1` [Example 63, N-[6-(4-Acetyl-1-piperazinyl)-3-pyridinyl]-4-{2-(1-methylethyl)-4-[3-methyl-5-(methyloxy)phenyl]-1,3-thiazol-5-yl}-2-pyrimidinamine], the IC50 was > 1000 nM against EGFR; < 100 nM on B-Raf; < 500 nM with A375P tumor cells; < 500 nM with HT-29 tumor cells; < 500 nM in the assay on SK-MEL-3 tumor cells; > 1000 nM against ErbB2. The IC50 with SK-MEL-28 tumor cells and in the assay with Colo205 tumor cells was < 500 nM throughout.
As for `CCNc1nc(-c2cc(OC)cc(OC)c2)c(-c2ccnc(Nc3ccc(OC4CCN(CCS(C)(=O)=O)CC4)c(F)c3)n2)o1` [Example 82], the IC50 against EGFR is > 1000 nM; on B-Raf, < 100 nM; in the assay on A375P tumor cells, > 5000 nM; in the assay with HT-29 tumor cells it was < 500 nM; in the assay on SK-MEL-3 tumor cells, < 500 nM; against ErbB2, > 1000 nM. Also, the figures for the IC50 in the assay on SK-MEL-28 tumor cells and with Colo205 tumor cells were 500 to 5000 nM and < 500 nM, respectively.
As for `CCNc1nc(-c2cc(OC)cc(OC)c2)c(-c2ccnc(Nc3ccc(OC4CCN(CCO)CC4)c(F)c3)n2)o1` [Example 124], the IC50 on EGFR is > 1000 nM; at B-Raf, < 100 nM; in the assay with A375P tumor cells, 500 to 5000 nM; with HT-29 tumor cells, < 500 nM; in the assay on SK-MEL-3 tumor cells it was < 500 nM; against ErbB2 it was > 1000 nM. In addition, the IC50 with SK-MEL-28 tumor cells and with Colo205 tumor cells was 500 to 5000 nM in each case.
Consider `COc1cc(C)cc(-c2nc(C(C)C)sc2-c2ccnc(Nc3ccc(N4CCN5CCCCC5C4)c(F)c3)n2)c1` (centres unmarked) [Example 113], for which the IC50 against EGFR was > 1000 nM; at B-Raf, < 100 nM; against ErbB2, > 1000 nM; in the assay with SK-MEL-28 tumor cells, 500 to 5000 nM; in the assay with Colo205 tumor cells, 500 to 5000 nM.
For the molecule `CCNc1nc(-c2cc(OC)cc(OC)c2)c(-c2ccnc(Nc3ccc(N4CCN5CCOC[C@H]5C4)nc3)n2)o1` [Example 135], the IC50 was > 1000 nM at EGFR; < 100 nM at B-Raf; > 1000 nM against ErbB2; > 5000 nM with SK-MEL-28 tumor cells; 500 to 5000 nM with Colo205 tumor cells.
As to `COc1cc(-c2nc(N3CCCC3)sc2-c2ccnc(Nc3ccc(OCCN4CCCC4)c(F)c3)n2)ccc1Cl` [Example 78, 4-[4-[4-Chloro-3-(methyloxy)phenyl]-2-(1-pyrrolidinyl)-1,3-thiazol-5-yl]-N-(3-fluoro-4-{[2-(1-pyrrolidinyl)ethyl]oxy}phenyl)-2-pyrimidinamine], the IC50 was 100 to 1000 nM on EGFR; < 100 nM at B-Raf; 100 to 1000 nM at ErbB2; 500 to 5000 nM in the assay on SK-MEL-28 tumor cells; 500 to 5000 nM in the assay on Colo205 tumor cells.
Take `CCNc1nc(-c2cc(C)cc(OC)c2)c(-c2ccnc(Nc3ccc(N4CCN(C(C)=O)CC4)nc3)n2)o1` [Example 70, N-[6-(4-Acetyl-1-piperazinyl)-3-pyridinyl]-4-{2-(ethylamino)-4-[3-methyl-5-(methyloxy)phenyl]-1,3-oxazol-5-yl}-2-pyrimidinamine]: the IC50 was > 1000 nM on EGFR; < 500 nM with A375P tumor cells; < 500 nM with HT-29 tumor cells; < 500 nM in the assay on SK-MEL-3 tumor cells; > 1000 nM against ErbB2.

Values taken from US20110190280A1, “Thiazole And Oxazole Kinase Inhibitors” (priority 2007, published 2011).
